Assay results taken from patent publication US10500222B2, “Compositions and methods relating to treatment of infection” (Wayne State University, priority 2015, dated 2019).
Values after ≈ are worked out from the molar mass of the structure shown. “Also recorded” adds a separate entry of the source.

Experiments:
[1] = system: P. aeruginosa KEI 1025; assay: Bacterial growth and Minimum Inhibitory Concentration (MIC), strain KEI 1025; assay type: cell-based, Pseudomonas aeruginosa; details: for absorbance values of bacterial cultures: vs growth control
[2] = system: mRNA levels in P. aeruginosa KEI 1025 infected cornea; assay: Real time RT-PCR of cornea, KEI 1025 infection; assay type: in vivo, C57BL/6 (B6) mice
Method: (§1) The left eyes of B6 mice (n=5/group/time) were injected with 5 μl of 2 μg/μl glycyrrhizin (GLY) (Sigma-Aldrich, St. Louis, Mo.) or PBS (control) subconjunctivally, one day before infection. Similar treatment was done using carbenoxolone (CBX) (Sigma-Aldrich, St. Louis, Mo.). All mice were injected intraperitoneally (IP) at 1 and 3 days p.i. with 100 μl of GLY (2 μg/μl) or CBX (1 μg/μl). PBS served as control for all these experiments. In a separate similar experiment mice were treated one day before infection with GLY subconjunctivally and injected intraperitoneally (i.p.) with GLY plus recombinant (r) HMGB1 (1 μg/100 μl) or GLY plus PBS. IP injections were similarly given at 1 and 3 days p.i. In an additional experiment, KEI 1025 infected B6 mice were treated with 5 μl of 2 μg/μl GLY subconjunctivally at 6 hours p.i. and injected intraperitoneally at 1 and 3 days p.i. with 100 μl of GLY (2 μg/μl).
KEI 1025 or ATCC strain 19660 infected GLY or PBS treated mice were sacrificed at 5 days p.i. and the normal, contralateral (uninfected) and infected cornea was harvested. For each cornea, total RNA was isolated (RNA STAT-60™; Tel-Test, Friendswood, Tex.) according to the manufacturer's instructions. Upon spectrophotometric quantification at 260 nm, 1 μg of each RNA sample was reverse transcribed using Moloney-murine leukemia virus (M-MLV) reverse transcriptase (Invitrogen, Carlsbad, Calif.) to produce a cDNA template for the PCR reaction. cDNA products were diluted 1:25 with diethylpyrocarbonate (DEPC)-treated water. A 2 μl aliquot of diluted cDNA was used for the real-time RT-PCR reaction with Real-Time SYBR® Green/Fluorescein PCR Master Mix (Bio-Rad) and primer concentrations of 10 μM (total 10 μl reaction volume). After a pre-programmed hot start cycle (3 min at 95° C.), the parameters used for PCR amplification were: 15 sec at 95° C. and 60 sec at 60° C. with the cycles repeated 45 times. Optimal conditions for PCR amplification of cDNA were established using routine methods. mRNA levels of HMGB1, RAGE, IL-1β, TLR2, TLR4, CXCL2, TNF-α, NLR family pyrin domain containing 3 (NLRP3), NLR family CARD domain containing 4 (NLRC4), IL-12, TGF-β, IL-10, single Ig IL-1-related receptor (SIGIRR) and interleukin 1 receptor-like 1 (ST2) were tested by real-time RT-PCR (CFX Connect™ Real-Time PCR Detection System; Bio-Rad, Richmond, Calif.). The fold differences in gene expression were calculated after normalization to β-actin and expressed as the relative mRNA concentration+SEM.

[3] = system: P. aeruginosa KEI 1025 infected cornea; assay: Histopathology of eyes infected with KEI 1025; assay type: in vivo, C57BL/6 (B6) mice; details: vs PBS
Method: as §1
Whole eyes infected with KEI 1025 (n=3/group/time) were enucleated from GLY or PBS treated B6 mice at 3 and 5 days p.i. Eyes were immersed in PBS, rinsed, and fixed in 1% osmium tetroxide, 2.5% glutaraldehyde, and 0.2 M Sorenson's phosphate buffer (pH 7.4) (1:1:1) at 4° C. for 3 h. Eyes were rinsed with 0.1 M phosphate buffer, dehydrated in graded ethanols and propylene oxide, and then infiltrated and embedded in Epon-araldite. Thick sections (1.5 μm) were cut, stained with Richardson's stain, observed, and photographed (Leica DM4000B, Leica Microsystems, Inc.).
The left eyes of B6 mice (n=5/group/time) were infected as above with Pseudomonas KEI 1025 strain. These infected B6 mice were treated by topical administration of GLY. Pseudomonas aeruginosa infected left cornea received 5 μL of GLY (20 μg/μL) topically beginning 6 (or 8) hours post infection and continued 2× daily for days 1-4 post infection.

[4] = system: protein levels in P. aeruginosa ATCC strain 19660 infected cornea; assay: ELISA of corneal proteins, strain 19660 infection; assay type: in vivo, C57BL/6 (B6) mice; details: vs PBS
Method: as §1
KEI 1025 or ATCC strain 19660 infected GLY or PBS treated, B6 mice (n=5/group/time) were sacrificed at 3 and 5 days p.i. and normal and infected corneas harvested. To quantify IL-1β and CXCL2 proteins, individual corneas were homogenized in 1 ml of 50 mM potassium phosphate buffer (pH 6.0) containing 0.5% HTAB (hexadecyltrimethylammonium bromide, Sigma). To quantify HMGB1, cathelicidin-related antimicrobial peptide (CRAMP), mouse beta defensin 2 (mBD2) and mouse beta defensin 3 (mBD3) protein levels, individual corneas were homogenized in 500 μl of PBS containing 0.1% Tween 20 (Sigma) and protease inhibitors (Roche, Indianapolis, Ind.). Corneal homogenates were centrifuged at 12,000 g for 10 min. A 50 μl aliquot of each supernatant was assayed in duplicate to quantify IL-1β, CXCL2, HMGB1 and mBD2 proteins. A 100 μl aliquot of CRAMP and mBD3 supernatant was assayed in duplicate to quantify corresponding protein levels. Undiluted supernatant aliquots were used to quantify all proteins except CXCL2 (1:2 dilution) and HMGB1 (1:5 dilution). An HMGB1 ELISA kit was purchased from Chondrex Inc., Redmond, Wash. CRAMP, mBD2 and mBD3 ELISA kits were purchased from MyBioSource, Inc., San Diego, Calif. All other ELISA kits were purchased from R&D Systems, Minneapolis, Minn. Assays were run following the manufacturer's instructions. Sensitivities of the assays were: 2.31 […] (mBD3).

[5] = KEI 1025, pretreatment subconj. + IP, infected cornea 5 days p.i., vs PBS

## CC1(C)[C@@H](O[C@H]2O[C@H](C(=O)O)[C@@H](O)[C@H](O)[C@H]2O[C@@H]2O[C@H](C(=O)O)[C@@H](O)[C@H](O)[C@H]2O)CC[C@]2(C)[C@H]3C(=O)C=C4[C@@H]5C[C@@](C)(C(=O)O)CC[C@]5(C)CC[C@@]4(C)[C@]3(C)CC[C@@H]12 [GLY, glycyrrhizin]
[1]; Pseudomonas aeruginosa, KEI1025, strain KEI 1025, 50% decrease in absorbance at 540 nm, 37° C., 18 h
  MIC50: 20 mg/mL (≈ 24.3 mM)
[1]; Pseudomonas aeruginosa, KEI1025, strain KEI 1025, 90% decrease in absorbance at 540 nm, 37° C., 18 h
  MIC90: 40 mg/mL (≈ 48.6 mM)
[1]; non-cytotoxic strains
  Minimum Inhibitory Concentration 50 (MIC50): 20 milligrams/milliliter
[1]; strain KEI 1025, grown with 20 mg/ml GLY
  absorbance values of bacterial cultures: significantly reduced
[1]; strain KEI 1025, grown with 40 mg/ml GLY
  absorbance values of bacterial cultures: significantly reduced
[2]; [5]
  CXCL2 mRNA levels: reduced
  HMGB1 mRNA levels: significantly reduced; also recorded: significantly decreased
  IL-1β mRNA levels: significantly reduced
  IL-10 mRNA levels: reduced
  IL-12 mRNA levels: only GLY reduced
  NLRC4 mRNA levels: only GLY reduced
  NLRP3 mRNA levels: reduced
  RAGE mRNA levels: reduced RAGE mRNA levels (FIG. 2B) when compared with PBS but not significantly
  ST2 mRNA levels: reduced
  TGF-β mRNA levels: reduced
  TLR2 mRNA levels: significantly reduced
  TLR4 mRNA: reduced
  TNF-α mRNA levels: reduced by both GLY and CBX, but only GLY (p<0.01) was significant
[2]; normal (uninfected) corneas, among PBS, CBX, GLY groups
  mRNA levels of the other molecules tested: no differences
[2]; normal (uninfected) corneas, vs PBS
  RAGE mRNA levels: significantly reduced
[3]; pretreatment subconj. + IP, 3 days p.i.
  histopathology: cellular infiltrate, corneal destruction: markedly reduced cellular infiltrate; also recorded: reduced corneal destruction and infiltrate
[3]; pretreatment subconj. + IP, 5 days p.i.
  histopathology: cellular infiltrate, damage to the cornea: markedly reduced cellular infiltrate; also recorded: reduced damage to the cornea and a decreased cellular infiltrate
[3]; topical GLY from 6 hours p.i. and days 1-4 twice each day, 5 days p.i.
  histopathology: damage to the cornea, cellular infiltrate: reduced damage to the cornea and a decreased cellular infiltrate
[4]; strain 19660, 3 days p.i.
  CXCL2 protein levels: downregulated significantly
[4]; strain 19660, 5 days p.i.
  CXCL2 protein levels: downregulated significantly
[4]; strain 19660, normal cornea and infected groups
  HMGB1 protein: no significant differences
[4]; strain 19660 experiment, normal cornea
  CXCL2 protein: No differences
